Where “and” joins values, the source holds several entries; their conditions need not be identical. Equal values may be shown once. Entries after “also recorded” stand apart in the source; their conditions may differ.
Columns and labels:
EMT6 tumors = assay: EMT6 (breast) syngeneic tumor model (Example B6); format: in vivo, Balb/c mice
Description: The therapeutic impact of Compound 39 of the examples in combination with anti PD-1 was studied for several […] mouse models, as shown in Table B-3. For each model, four dosing regimens were studied, using a group size of 10 mice per dosing regimen per model, and a total of 40 mice per model.
Mice were shaved and tumor cells as indicated in Table B-3 were subcutaneously implanted in a 100 μl cell suspension that was subcutaneously injected into the front/rear flank of each mouse (as indicated in Table B-3).
There was no dosing holiday. Dietary supplements were uniform for all animals in the same group.
Animals were monitored weekly for changes in tumor volume. Tumors were measured at least once a week using calipers. Tumor volume was calculated using the equation: (longest diameter*shortest diameter^2)/2.
The study was terminated four weeks after the first dose or when the tumor sizes reached greater than 3000 mm^3, whichever was first. Mice were euthanized and tumors were collected.
Tumor tissues (50 to 80 mg) were homogenized using metal beads in pre-chilled RINO screw cap tubes, using lysis matrix (MP Lysing Matrix S [⅛″], 2 mL Tube MP Biomedical Cat #116925100) on MP Fast Prep 24 instrument. Tumor RNA extraction from the tumor homogenate used the Ambion Purelink, RNA kit (Cat #12183018A) according to the manufacturers' protocol. A total of 100 ng RNA was used for the Nanostring analysis of the immuno-oncology and fibrosis panel, and 300 ng RNA was used for the analysis of the integrin panel. RNA was hybridized to gene expression Plexset according to the manufacturers' protocol. Hybridized reactions were read on nCounter MAX (Nanostring), and data were analyzed using nCounter software.
Table B-5 lists the catalog numbers of the antibodies used in the immunohistochemical (IHC) studies. Quantification of staining was done using the HALO software package (Indica Labs, Albaquerque, NM).

KPC tumors = assay: Orthotopic KPC syngeneic model of PDAC (Example B11)
Description: The preclinical efficacy of Compound 39 of the examples was determined in genetically-defined (LSL-KrasG12D/+; LSL-Trp53R172H/+; Pdx1-Cre (KPC), and Pan02) and genomically diverse patient-derived PDA xenograft models. Clinically relevant combinations with standard of care (SoC) chemotherapy and anti-programmed death receptor-1 antibody (anti mPD-1) were tested by monitoring tumor growth, metastasis, and animal survival. Mechanistic assessment of alterations in the tumor microenvironment (TME) was performed using transcriptomic, immunohistochemical, and immunofluorescence approaches.
Animals were prepared for injection using standard approved anesthesia. Mice were shaved and tumor cells 500 KPC cells were orthotopically implanted (in pancreas) in a 100 μL cell suspension.
Tumor cells were allowed to form pancreatic tumors for one week. Mice were randomized into groups and treated with indicated compounds and dose regimens according to the schema outlined in Table B-7.
Compound 39 was administered in a solution containing 10% v/v ethanol, 70% w/v propylene glycol, and 20% v/v PBS and administered to mice via oral gavage at a dose of 300 mg/kg body weight over the duration of 22 days (for timepoint study) or 80 days (survival study). The mAbs, anti-mPD-1 and anti-αVβ8, were each administered in PBS by intraperitoneal injection at a dose of 10 mg/kg body weight twice a week (for 2 weeks).
Since these were orthotopic tumors, tumor volume measurement was not possible. Tumor weights were determined at the end of the study. Additionally, body weight of mice and any change in behavior/appearance were monitored twice a week for any signs of discomfort/toxicity.
The study was terminated either at 22 days after the first dose, or at 80 days for the survival study. Mice were euthanized and tumors were collected. Half of the tumor was snap frozen in liquid nitrogen and the other half was fixed in formalin.
Formalin (10%) fixed tissues were sent to Histowiz (a clinical research organization providing complete histology services) for paraffin embedding and sectioning. Using standard protocols optimized by Histowiz, tissue sections were stained for hematoxylin and eosin and immunostained for CD8, CD4, Cleaved caspase-3, and FoxP3, which are specific membrane markers for cytotoxic, helper, and regulator T cells, respectively. Additionally, tissues were stained with Pico Sirius Red (PSR) and second harmonic imaging (SHG) analysis was performed to evaluate stromal collagen density.

TKCC-05 tumors = assay: Orthotopic TKCC-05 (PDX-05) PDX model of PDAC (Example B12); format: in vivo, NSG mice; conditions: FIG. 26B
Description: Table B-9 depicts the study design to determine the efficacy of selective αvβ1/αvβ8 SMI in the orthotopic ECM-high PDX models of PDAC. Table B-10 depicts the study design for the TKCC-10 PDX model.
Table B-11 depicts the study design for the TKCC-05 model.
TKCC-05 cells were inoculated in the pancreas of […] mice and were allowed to grow into tumors for 1 week. The mice were then treated according to schema outlined in […], and FIG. 26A, which depicts a schematic diagram of the treatment regimen in the TKCC-05 PDAC PDX model for this study. FIG. 26B depicts a graph associated with the quantification of tumor weights in mice treated with Compound 39, Reference compound B, and ADWA-11 Ab for the study associated with Example B12. FIG. 26C depicts a graph associated with the quantification of tumor weights in mice treated with G/A, Compound 39+G/A, Reference compound B+G/A, and ADWA-11+G/A for the study associated with Example B12. P values by one-way ANOVA.

[1] = test system: human breast tumor tissue; assay: Ex vivo cultured human breast tumor tissue, immunofluorescence of fibrotic markers; format: cell-based
Description: (§1) Integrin αVβ1 is expressed in multiple solid tumors and drives the adhesion of cancer-associated fibroblasts (CAFs) to latent TGFβ. In human tumor tissues and in CAFs, αVβ1 protein expression was evaluated via immunohistochemistry (IHC) and custom […] assay, respectively. CAF adhesion to the TGFβ latency-associated peptide (LAP) was quantified in the presence or absence of Compound 39 in vitro by high-content microscopy imaging. The activity of Compound 39 in combination with anti-mPD-1 on fibrotic markers was evaluated in the EMT6 tumor model in vivo by gene expression analysis using the Nanostring® nCounter analysis system. Compound 39-treated human breast tumor tissue was analyzed for fibrotic marker α-smooth muscle actin (αSMA) using immunofluorescence.
(§2) αvβ1 protein expression was evaluated in human tumor tissues via immunohistochemistry. αvβ1 protein levels in primary human CAFs isolated from pancreatic carcinoma, lung adenocarcinoma, and lung squamous cell carcinoma were quantified via custom electrochemiluminescence assay. CAF adhesion to latency associated peptide (LAP), the integrin-binding region of latent TGF-β, was quantified in the presence or absence of Compound 39 of the examples and a small molecule selective inhibitor of αvβ1 by high-content imaging in vitro. […]

[2] = test system: primary human cancer associated fibroblasts (CAFs); assay: CAF adhesion to TGFβ latency-associated peptide (LAP), high-content imaging; format: cell-based
Description: as §1, §2

[3] = Compound 39+α-PD1 vs vehicle+αPD1, FIG. 48, model not stated

`Cc1ncnc(Cl)c1C1(C(=O)N[C@@H](CCOCCCCc2ccc3c(n2)NCCC3)C(=O)O)CC1` [Compound 39, N-(1-(4-chloro-6-methylpyrimidin-5-yl)cyclopropane-1-carbonyl)-O-(4-(5,6,7,8-tetrahydro-1,8-naphthyridin-2-yl)butyl)-L-homoserine] was tested, and the IFNγ gene signature (EMT6 tumors; [3]) was “increases”, the TGFβ gene signatures (EMT6 tumors; [3]) was “Reduces” and the “fibrotic markers and tissue fibrosis in the tumor microenvironment” value (EMT6 tumors; Nanostring gene expression, Pico Sirius red, FIG. 107-112) was “reduces fibrotic markers; also recorded: significantly reduced fibrosis”. For the same molecule, the TGFβ activity (EMT6 tumors; compared to vehicle, FIG. 33, model not given) was “reduced TGFβ activity”, the “expression of IFNγ-regulated gene Granzyme B” value (EMT6 tumors; compared to vehicle, FIG. 34A) was “increased expression” and the “expression of IFNγ-regulated gene IFNγ” value (EMT6 tumors; compared to vehicle, FIG. 34B) was “increased expression”. For the same molecule, the “expression of IFNγ-regulated gene CXCL9” value (EMT6 tumors; compared to vehicle, FIG. 34C) was “increased expression”, the “expression of IFNγ-regulated gene PDL1” value (EMT6 tumors; compared to vehicle, FIG. 34D) was “increased expression” and the mean tumor weight (KPC tumors; 22 day timepoint, Compound 39 300 mg/kg oral gavage, mAbs 10 mg/kg i.p., FIG. 20B) was 0.44 ± 0.9 g. The “collagen content (PSR, SHG imaging)” value (KPC tumors; FIG. 22A, 22B) was “significantly reduced the collagen content”, the “reduction in tumor weight compared with vehicle” value (KPC tumors; FIG. 79) was 45% and the “avg % CD8^+ T cells/ROI, invasive (leading) edge” value (KPC tumors; IHC, FIG. 21A) was 3.06±1.05%. The “avg % CD8^+ T cells/ROI, internal tumor” value (KPC tumors; IHC, FIG. 21B) was 2.02±0.77%, the “disease progression / overall survival” value (KPC tumors; in words, FIG. 23, 46, 47) was “delayed disease progression in vivo; also recorded: improved overall survival compared to α-PD-1” and the “CD4^+ T cells” value (KPC tumors; in words, compared to vehicle, FIG. 21E, 21F) was “did not show any significant difference in CD4^+ T cells”. The “median survival (median OS)” value (KPC tumors; survival study up to 80 days, FIG. 23B, 23C) was 45 days, the mean tumor weight (TKCC-05 tumors; 30 days treatment) was 0.23 ± 0.08 g and 0.228 ± 0.06 g and the “tumor weight / tumor growth” value (TKCC-05 tumors; in words, 26C) was “significantly blocks tumor growth”. For the same molecule, the “reduction of fibroblast activation marker αSMA” value ([1]; compared to vehicle-treated tissues, FIG. 106) was 2.9 fold, the “expression of fibrotic markers (αSMA, FAP)” value ([1]; in words) was “decreases; also recorded: reduced expression of fibrotic markers αSMA and FAP” and the “adhesion of CAFs to LAP” value ([2]; LUAD, LUSC and pancreatic stellate CAFs, FIG. 103-105) was “inhibits the adhesion of LUAD, LUSC, and PSC CAFs to TGFβ latency-associated peptide in a dose-dependent manner; also recorded: blocked the binding of CAFs to LAP; also recorded: significantly block in vitro binding of primary human CAFs to LAP”. For the same molecule, the “binding of latency associated peptide (LAP) to αvβ1” value ([2]; cell adhesion assays) was “prevented”.
